From ChEMBL document CHEMBL4616701, “Design, Synthesis, and Pharmacological Evaluation of Second Generation EZH2 Inhibitors with Long Residence Time” (ACS Med Chem Lett, 2020)
The source made the active and inactive calls. The rule behind the calls is not given here.

How the values were obtained:
[1] = target: T1, Histone-lysine N-methyltransferase EZH2 (Homo sapiens, UniProt Q15910); experiment: Inhibition of EZH2 in human HeLa cells assessed as inhibition of trimethylation of H3K27 after 72 hrs by AlphaLISA assay; assay type: cell-based
Target sequence in this assay (Q15910 whole entry): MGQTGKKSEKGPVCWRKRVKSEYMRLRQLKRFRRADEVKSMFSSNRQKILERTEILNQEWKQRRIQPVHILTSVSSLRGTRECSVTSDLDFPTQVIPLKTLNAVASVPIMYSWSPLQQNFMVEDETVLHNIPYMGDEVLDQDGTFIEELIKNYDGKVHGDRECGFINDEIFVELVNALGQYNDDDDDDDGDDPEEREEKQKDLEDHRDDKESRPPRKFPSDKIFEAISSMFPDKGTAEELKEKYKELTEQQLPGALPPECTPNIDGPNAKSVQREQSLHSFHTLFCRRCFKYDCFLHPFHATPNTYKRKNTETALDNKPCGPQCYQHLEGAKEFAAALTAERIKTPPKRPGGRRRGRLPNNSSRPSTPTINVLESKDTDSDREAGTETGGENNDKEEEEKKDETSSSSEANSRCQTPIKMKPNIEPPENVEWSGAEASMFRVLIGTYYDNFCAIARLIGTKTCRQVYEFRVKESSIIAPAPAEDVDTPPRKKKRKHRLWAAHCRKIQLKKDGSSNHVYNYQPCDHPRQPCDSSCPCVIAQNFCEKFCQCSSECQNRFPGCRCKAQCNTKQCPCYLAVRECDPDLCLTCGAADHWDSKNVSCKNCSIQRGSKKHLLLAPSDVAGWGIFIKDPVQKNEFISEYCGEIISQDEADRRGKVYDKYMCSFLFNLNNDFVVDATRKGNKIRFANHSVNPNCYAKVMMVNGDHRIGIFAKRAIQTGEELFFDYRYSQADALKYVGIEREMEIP

[2] = target: T1, Histone-lysine N-methyltransferase EZH2; experiment: Inhibition of N-terminal FLAG-tagged EZH2 in PRC2 complex (unknown origin) expressed in baculovirus infected Sf9 cells using H2N-RKQLATKAAR(Kme0)SAPATGGVKKP-NTPEGBiot peptide as substrate preincubated with [3H]SAM for 4 to 5 hrs followed by substrate addition and measured after 20 hrs by Topcount reader analysis
Target sequence in this assay (Q15910 whole entry): as above

CYP3A4 = experiment: Upregulation of CYP3A4 mRNA expression in human Fa2N-4 cells at 10 uM after 3 days relative to control; assay type: ADME, cell-based; details: read-out: FC
[3] = target: T1, Histone-lysine N-methyltransferase EZH2; experiment: Binding affinity to N-terminal FLAG-tagged EZH2 in PRC2 complex (unknown origin) expressed in baculovirus infected Sf9 cells assessed as residence time at 21 nM pre-equilibrated with enzyme followed by incubation with bio-EZH2i and measured after 3 to 6 mins by TR-FRET assay
Target sequence in this assay (Q15910 whole entry, looked up): as the sequence (Q15910 whole entry) above

KARPAS-422 [4] = experiment: Antiproliferative activity against human KARPAS422 cells assessed as growth inhibition after 8 days by Cell Titer-Glo luminescent assay; assay type: functional; details: KARPAS-422, 192 h
[5] = Dose normalized AUClast in CB-17 SCID mouse xenografted with human KARPAS422 cells at 25 mg/kg, po bid for 21 days and measured after 10 hrs post first dose at day 1 by LC-MS analysis; assay type: ADME, organism-based, KARPAS-422; details: in vivo
[6] = Clearance in iv dosed mouse; assay type: ADME, organism-based; details: in vivo
KARPAS-422 [7] = experiment: Antitumor activity against human KARPAS422 cells xenografted in CB-17 SCID mouse assessed as tumor growth inhibition at 25 mg/kg, po bid and measured on day 21 by caliper method relative to control; assay type: functional; details: KARPAS-422, po, 504 h, read-out: TGI
[8] = Time during which free drug concentration exceeds EC50 for inhibition of EZH2 in human HeLa cells in CB-17 SCID mouse xenografted with human KARPAS422 cells at 25 mg/kg, po bid for 21 days and measured up to 10 hrs post first dose at day 1 by LC-MS analysis; assay type: organism-based; details: in vivo
[9] = Oral bioavailability in CB-17 SCID mouse xenografted with human KARPAS422 cells at 25 mg/kg, bid for 21 days measured up to 10 hrs post first dose at day 1 by LC-MS analysis; assay type: ADME, organism-based, KARPAS-422; details: in vivo
KARPAS-422 [10] = experiment: Antitumor activity against human KARPAS422 cells xenografted in CB-17 SCID mouse assessed as tumor regression at 25 mg/kg, po bid and measured on day 14 by caliper method; assay type: functional, organism-based
[11] = target: T1, Histone-lysine N-methyltransferase EZH2; experiment: In vivo inhibition of EZH2 in CB-17 SCID mouse xenografted with human KARPAS422 cells assessed as reduction in trimethylation of H3K27 in tumor at 25 mg/kg, po bid for 21 days measured after 14 days by MSD-ELISA; assay type: functional, organism-based; details: KARPAS-422
Target sequence in this assay (Q15910 whole entry, looked up): as the sequence (Q15910 whole entry) above

[12] = Protein binding in human plasma; assay type: ADME, cell-free; details: read-out: PPB (converted)
[13] = Toxicity in CB-17 SCID mouse xenografted with human KARPAS422 cells assessed as effect on body weight at 25 mg/kg, po bid and measured on day 21; assay type: organism-based, KARPAS-422; details: in vivo
KARPAS-422 [14] = experiment: Antitumor activity against human KARPAS422 cells xenografted in CB-17 SCID mouse assessed as tumor growth inhibition at 25 mg/kg, po bid and measured on day 25 by caliper method relative to control; assay type: functional; details: KARPAS-422, po, 600 h, read-out: TGI
[15] = Protein binding in mouse plasma; assay type: ADME, cell-free; details: read-out: PPB (converted)
KARPAS-422 [16] = experiment: Antitumor activity against human KARPAS422 cells xenografted in CB-17 SCID mouse assessed as tumor regression at 160 mg/kg, po bid for 23 days and measured three times per week by caliper method; assay type: functional, organism-based
[17] = Toxicity in CB-17 SCID mouse xenografted with human KARPAS422 cells assessed as body weight loss at 50 mg/kg, sc bid for 16 days; assay type: organism-based, KARPAS-422; details: in vivo, 384 h
KARPAS-422 [18] = experiment: Antitumor activity against human KARPAS422 cells xenografted in CB-17 SCID mouse assessed as tumor regression at 50 mg/kg, sc bid for 16 days and measured at day 9 by caliper method; assay type: functional, organism-based
CWR22R = experiment: Antitumor activity against human 22Rv1 cells xenografted in CB-17 SCID mouse assessed as tumor growth inhibition at 50 mg/kg, sc bid and measured three times per week by caliper method relative to control; assay type: functional; details: 22Rv1, sc, read-out: TGI

| Structure (SMILES) | EC50 [1] [nM] | IC50 [2] [nM] | fold induction at 72 h, 10 µM (CYP3A4) | TIME [3] [h] | GI50 (KARPAS-422 [4]) [nM] | other results |
| --- | --- | --- | --- | --- | --- | --- |
| CSc1cc(C)[nH]c(=O)c1CNC(=O)c1c(C)n([C@H](C)[C@H]2CC[C@@H](N3CC(F)(F)C3)CC2)c2ccccc12 | 5.9 | 0.18 | 45 | 29.1 |  |  |
| Cc1cc(Sc2ccccc2)c(CNC(=O)c2c(C)n([C@H](C)C3CCN(CC(F)(F)F)CC3)c3ccccc23)c(=O)[nH]1 | 181 | 0.62 |  |  |  |  |
| CSc1cc(C)[nH]c(=O)c1CNC(=O)c1c(C)n([C@H](C)[C@H]2CC[C@H](N3CC(OC4CC4)C3)CC2)c2ncc(F)cc12 | 1.8 | 0.06 | 12 | 65.8 | 24 |  |
| CSc1cc(C)[nH]c(=O)c1CNC(=O)c1c(C)n([C@H](C)[C@H]2CC[C@H](N3CC(OC4CC4)C3)CC2)c2ncccc12 | 1.8 | 0.057 | 2.2 | 57.5 | 12 to 12.2 | AUClast/dose [5]: 46.5 ng·h/mL/(mg/kg); clearance [6]: 55.8 mL/min/kg; inhibition in vivo at 25 mg/kg (KARPAS-422 [7]): 75%; T>fEC50 [8]: 4 h; bioavailability [9]: 15%; Activity (KARPAS-422 [10]): Active; inhibition [11]: Active; fraction unbound [12]: 0.03; Activity [13]: Non-Toxic; inhibition in vivo at 25 mg/kg (KARPAS-422 [14]): ≥ 91%; fraction unbound [15]: 0.13 |
| Cc1cc(SC2CCC2)c(CNC(=O)c2c(C)n([C@H](C)C3CCN(CC(F)(F)F)CC3)c3ccccc23)c(=O)[nH]1 | 48.5 | 0.49 |  |  |  |  |
| CCSc1cc(C)[nH]c(=O)c1CNC(=O)c1c(C)n([C@H](C)C2CCN(CC(F)(F)F)CC2)c2ccccc12 | 45.3 | 0.73 |  |  |  |  |
| Cc1cc(S(C)(=O)=O)c(CNC(=O)c2c(C)n([C@H](C)C3CCN(CC(F)(F)F)CC3)c3ccccc23)c(=O)[nH]1 | > 304 | 4.1 |  |  |  |  |
| CCN(c1cc(-c2ccc(CN3CCOCC3)cc2)cc(C(=O)NCc2c(C)cc(C)[nH]c2=O)c1C)C1CCOCC1 |  |  |  |  |  | Activity (KARPAS-422 [16]): Active |
| CSc1cc(C)[nH]c(=O)c1CNC(=O)c1c(C)n([C@H](C)[C@H]2CC[C@H](N3CC(OC4CC4)C3)CC2)c2ncc(Cl)cc12 | 3.5 | 0.092 | 1.6 | 64.2 | 37 |  |
| CSc1cc(C)[nH]c(=O)c1CNC(=O)c1c(C)n([C@H](C)[C@H]2CC[C@H](N3CC(OC4CC4)C3)CC2)c2c(F)cccc12 | 3.4 | 0.063 |  | 100 | 32 |  |
| CSc1cc(C)[nH]c(=O)c1CNC(=O)c1c(C)n([C@H](C)[C@H]2CC[C@H](N3CC(OC4CC4)C3)CC2)c2ncncc12 | 6.3 | 0.1 |  | 51.9 | 29 |  |
| COC1CN([C@H]2CC[C@H]([C@@H](C)n3c(C)c(C(=O)NCc4c(SC)cc(C)[nH]c4=O)c4ccccc43)CC2)C1 | 2 | 0.059 | 2 | 141 | 33 | Activity [17]: Non-Toxic; Activity (KARPAS-422 [18]): Active; inhibition in vivo at 50 mg/kg (CWR22R): 55% |
| CSc1cc(C)[nH]c(=O)c1CNC(=O)c1c(C)n([C@H](C)[C@H]2CC[C@H](NC3COC3)CC2)c2ccccc12 | 6.7 | 0.13 | 5 | 138 |  |  |
| COc1cc(C)[nH]c(=O)c1CNC(=O)c1c(C)n([C@H](C)C2CCN(CC(F)(F)F)CC2)c2ccccc12 [CPI-1205] |  |  |  | 4.5 | 436 |  |
